Legend:
A549-ACE2 [1] = assay: drug-induced phospholipidosis relative to tamoxifen; higher = more phospholipidosis
[2] = test system: A549-ACE2 infected with SARS-CoV-2; assay: cell count relative to DMSO; higher = less toxic; details: 24 h
Vero E6 [3] = assay: relative viability EC50 (midpoint between 100% and the lowest measured viability); higher = less toxic; details: 72 h
U2OS [4] = assay: as above; details: 72 h
Calu-3 [5] = assay: as above; details: 72 h
[6] = test system: A549-ACE2 infected with SARS-CoV-2; assay: morphology score (similarity to uninfected cells); higher = more like uninfected cells; details: 24 h
[7] = test system: A549-ACE2 infected with SARS-CoV-2; assay: SARS-CoV-2 infection rate relative to DMSO; higher = more infection; details: 24 h
Caco-2 [8] = assay: drug sensitivity score (DSS) for viability; higher = more toxic; extreme values may be limits of the assay; details: 72 h
HepG2 [9] = assay: as above; details: 72 h
Vero E6 [10] = assay: as above; details: 72 h
U2OS [11] = assay: as above; details: 72 h
Calu-3 [12] = assay: as above; details: 72 h
Caco-2 [13] = assay: cell viability relative to DMSO; higher = less toxic; details: 72 h
HepG2 [14] = assay: as above; details: 72 h
Vero E6 [15] = assay: as above; details: 72 h
U2OS [16] = assay: as above; details: 72 h
Calu-3 [17] = assay: as above; details: 72 h
A549-ACE2 [18] = assay: phospholipidosis EC50; higher = less potent phospholipidosis inducer
Caco-2 [19] = assay: relative viability EC50 (midpoint between 100% and the lowest measured viability); higher = less toxic; details: 72 h
HepG2 [20] = assay: as above; details: 72 h

CC(NCCC(c1ccccc1)c1ccccc1)c1ccccc1 (configuration not stated) [fendiline]
drug-induced phospholipidosis [%], A549-ACE2 [1]
Details	0.3 µM	0.833333 µM	3.33333 µM	6.66667 µM	10 µM	30 µM
24 h	3.14	1.17	27.5	62.8	85	85.8
48 h	2.47	2.24	19.7	62.3	88.8	–
72 h	1.95	-3.79	18.1	60.3	87.3	–

Details	SARS-CoV-2 infection rate [%]	cell count [%]	cell viability [%]	morphology score	phospholipidosis EC50 [µM]
A549-ACE2 [18], 24 h	–	–	–	–	4.59
A549-ACE2 [18], 48 h	–	–	–	–	6.53
A549-ACE2 [18], 72 h	–	–	–	–	6.61
Caco-2 [13], 1 nM	–	–	97.6	–	–
Caco-2 [13], 10 nM	–	–	99.8	–	–
Caco-2 [13], 100 nM	–	–	93.9	–	–
Caco-2 [13], 1000 nM	–	–	98.1	–	–
Caco-2 [13], 10000 nM	–	–	67.6	–	–
Calu-3 [17], 1 nM	–	–	91.6	–	–
Calu-3 [17], 10 nM	–	–	96.3	–	–
Calu-3 [17], 100 nM	–	–	103	–	–
Calu-3 [17], 1000 nM	–	–	102	–	–
Calu-3 [17], 10000 nM	–	–	46.7	–	–
HepG2 [14], 1 nM	–	–	110	–	–
HepG2 [14], 10 nM	–	–	97.8	–	–
HepG2 [14], 100 nM	–	–	102	–	–
HepG2 [14], 1000 nM	–	–	94.2	–	–
HepG2 [14], 10000 nM	–	–	70.1	–	–
U2OS [16], 1 nM	–	–	99.2	–	–
U2OS [16], 10 nM	–	–	106	–	–
U2OS [16], 100 nM	–	–	93.1	–	–
U2OS [16], 1000 nM	–	–	99.6	–	–
U2OS [16], 10000 nM	–	–	84.2	–	–
Vero E6 [15], 1 nM	–	–	96.5	–	–
Vero E6 [15], 10 nM	–	–	98.6	–	–
Vero E6 [15], 100 nM	–	–	97.5	–	–
Vero E6 [15], 1000 nM	–	–	99.4	–	–
Vero E6 [15], 10000 nM	–	–	88.9	–	–
[2], 0.3 µM	–	98	–	–	–
[2], 3 µM	–	110	–	–	–
[2], 10 µM	–	119	–	–	–
[2], 30 µM	–	43	–	–	–
[6], 0.3 µM	–	–	–	-0.14	–
[6], 3 µM	–	–	–	0.77	–
[6], 10 µM	–	–	–	0.9	–
[6], 30 µM	–	–	–	0.08	–
[7], 0.3 µM	100	–	–	–	–
[7], 3 µM	47	–	–	–	–
[7], 10 µM	13	–	–	–	–
[7], 30 µM	45	–	–	–	–

Details	drug sensitivity score	relative viability EC50 [µM]
Caco-2 [8]	1.7	–
Calu-3 [5]	–	3.42
Calu-3 [12]	2.6	–
HepG2 [9]	2.2	–
U2OS [4]	–	> 10
U2OS [11]	0.3	–
Vero E6 [3]	–	> 10
Vero E6 [10]	0	–

CN1CCCN(C(c2ccccc2)c2ccc(Cl)cc2)CC1 (configuration not stated) [homochlorcyclizine]
drug-induced phospholipidosis [%], A549-ACE2 [1]
Details	0.3 µM	0.833333 µM	3.33333 µM	6.66667 µM	10 µM	30 µM
24 h	1.65	3.27	20.6	54.6	81	102
48 h	3.21	3.5	22.2	49.2	82.5	107
72 h	7.01	3.95	24.7	47.4	80.1	134

Details	SARS-CoV-2 infection rate [%]	cell count [%]	cell viability [%]	morphology score	phospholipidosis EC50 [µM]
A549-ACE2 [18], 24 h	–	–	–	–	6.4
A549-ACE2 [18], 48 h	–	–	–	–	7.14
A549-ACE2 [18], 72 h	–	–	–	–	10.5
Caco-2 [13], 1 nM	–	–	97.5	–	–
Caco-2 [13], 10 nM	–	–	94.7	–	–
Caco-2 [13], 100 nM	–	–	90.5	–	–
Caco-2 [13], 1000 nM	–	–	99.6	–	–
Caco-2 [13], 10000 nM	–	–	101	–	–
Calu-3 [17], 1 nM	–	–	96.8	–	–
Calu-3 [17], 10 nM	–	–	94.3	–	–
Calu-3 [17], 100 nM	–	–	100	–	–
Calu-3 [17], 1000 nM	–	–	102	–	–
Calu-3 [17], 10000 nM	–	–	99.3	–	–
HepG2 [14], 1 nM	–	–	98.7	–	–
HepG2 [14], 10 nM	–	–	103	–	–
HepG2 [14], 100 nM	–	–	104	–	–
HepG2 [14], 1000 nM	–	–	108	–	–
HepG2 [14], 10000 nM	–	–	79.6	–	–
U2OS [16], 1 nM	–	–	99.8	–	–
U2OS [16], 10 nM	–	–	95.7	–	–
U2OS [16], 100 nM	–	–	104	–	–
U2OS [16], 1000 nM	–	–	99.2	–	–
U2OS [16], 10000 nM	–	–	97.1	–	–
Vero E6 [15], 1 nM	–	–	97.9	–	–
Vero E6 [15], 10 nM	–	–	99.5	–	–
Vero E6 [15], 100 nM	–	–	95.2	–	–
Vero E6 [15], 1000 nM	–	–	96.4	–	–
Vero E6 [15], 10000 nM	–	–	102	–	–
[2], 0.3 µM	–	102	–	–	–
[2], 3 µM	–	117	–	–	–
[2], 10 µM	–	113	–	–	–
[2], 30 µM	–	95	–	–	–
[6], 0.3 µM	–	–	–	0.01	–
[6], 3 µM	–	–	–	0.71	–
[6], 10 µM	–	–	–	0.84	–
[6], 30 µM	–	–	–	0.53	–
[7], 0.3 µM	97	–	–	–	–
[7], 3 µM	51	–	–	–	–
[7], 10 µM	20	–	–	–	–
[7], 30 µM	19	–	–	–	–

Details	drug sensitivity score	relative viability EC50 [µM]
Caco-2 [8]	0	–
Caco-2 [19]	–	> 10
Calu-3 [5]	–	> 10
Calu-3 [12]	0	–
HepG2 [9]	0.4	–
HepG2 [20]	–	> 10
U2OS [4]	–	> 10
U2OS [11]	0	–
Vero E6 [3]	–	> 10
Vero E6 [10]	0	–
